Earlier results, collected in patent publication US8791105B2, “Methods for alleviating chronic pain and improving performance of cattle undergoing dehorning or castration” (Kansas State University Research Foundation, priority 2010, dated 2014).

Key:
[1] = plasma; humans; cited from earlier work
[2] = in vivo; cited from earlier work

Row | Molecule | reported minimum effective concentration [1] [µg/mL] | plasma half-life previously reported [2] [min]
1 | 1-(aminomethyl) cyclohexane acetic acid [gabapentin] | 2 | –
2 | O=C(O)c1ccccc1O [salicylate] | – | 30
